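All cell lines were grown in 96-well plates and treated with compound for 48 hours. GI50 marks 50% less growth. TGI: total growth inhibition.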
Assays:
Test in all cases: growth of human tumour cells (NCI), 48 h
CAKI-1 renal = test system: CAKI-1 renal
OVCAR-4 ovarian = test system: OVCAR-4 ovarian
OVCAR-5 ovarian = test system: OVCAR-5 ovarian
SF-295 CNS = test system: SF-295 CNS
SK-OV-3 ovarian = test system: SK-OV-3 ovarian
HL-60(TB) leukemia = test system: HL-60(TB) leukemia
RPMI-8226 leukemia = test system: RPMI-8226 leukemia
SNB-19 CNS = test system: SNB-19 CNS
MDA-MB-435 = test system: MDA-MB-435
PC-3 prostate = test system: PC-3 prostate

SMILES	GI50 (CAKI-1 renal) [µM]	TGI (CAKI-1 renal) [µM]	GI50 (OVCAR-4 ovarian) [µM]	TGI (OVCAR-4 ovarian) [µM]	GI50 (OVCAR-5 ovarian) [µM]	TGI (OVCAR-5 ovarian) [µM]	GI50 (SF-295 CNS) [µM]	TGI (SF-295 CNS) [µM]	GI50 (SK-OV-3 ovarian) [µM]	TGI (SK-OV-3 ovarian) [µM]	TGI (HL-60(TB) leukemia) [µM]	TGI (RPMI-8226 leukemia) [µM]	TGI (SNB-19 CNS) [µM]	TGI (MDA-MB-435) [µM]	TGI (PC-3 prostate) [µM]	GI50 (HL-60(TB) leukemia) [µM]	GI50 (MDA-MB-435) [µM]	GI50 (PC-3 prostate) [nM]	GI50 (SNB-19 CNS) [µM]	GI50 (RPMI-8226 leukemia) [nM]
CC(=O)[CH-]C(=O)c1ccccc1.CC(=O)[CH-]C(=O)c1ccccc1.CC1(C)OCC(C2OC3OC(C)(C)OC3C2[O-])O1.CC1(C)OCC(C2OC3OC(C)(C)OC3C2[O-])O1.[Ti+4] (stereo unspecified)	29.9	79.7	20.4	68.4	12.3	29	13.8	30.8	14.9	50.3										
CCOC(=O)C1=C(C)N(Cc2ccccc2)C(=O)C1CC#N (stereo unspecified)		> 100		> 100				> 100		> 100	94.7	> 100	> 100							
COc1ccc2c(c1)C1OCCNC1CC2 (stereo unspecified)		> 100				> 100		> 100		> 100	> 100	> 100	> 100	> 100	> 100					
NCCCCCCCCCCCn1c2c(c3ccccc3c1=O)C(=O)c1ccccc1-2	8.62	63.5	2.86	8.63	2.48	9.01	2.7	7.9	14.3	34.5	20.4		38.9	47.9	7.12	6.28	11	2260	6.77	
CCN(CC)CCOc1ccc(/C=C2\C[C@H]3[C@H]4CC=C5C[C@@H](O)CC[C@]5(C)[C@H]4CC[C@]3(C)[C@H]2O)cc1OC	7.14	15.9			9.44	18.6	10.4	25.4			22.5		> 50	16.5		10.4	7.75		17.1	
C1COCCOCCOCCOCCOCCO1.[Cl][Sn]([Cl])([c]1ccccc1)[c]1ccccc1	0.478	1.75	12.3	26.3	17.8	31.6	16.1	30	16.6	30.2	7.55	6.15	14.5			2.64			6.48	2020
CCCCCCC/C=C/[C@H]1O[C@]2(O)C(=O)C=C3C[C@@H](O[C@@H]4O[C@H](CO)[C@@H](O)C(O)[C@@H]4O)C[C@@H]3[C@H]2C=C1C (stereo partly specified)			2.75	7.83	4.74	10.8	3.87	8.79	5.95	16.4	4.05	1.98	8.04	5.69	11.7	0.812	1.21	1560	3.52	711
COc1ccc2c(c1)[n+]([O-])c(-c1ccc(Br)cc1)c(N)[n+]2[O-]		> 100		> 100		> 100		> 100		> 100	> 100		> 100							
CO[C@]12C=C/C(=C(/C(=O)OCc3cccnc3)C(=O)CCCCCCCC[C@@]3(OC)C=C/C(=C(/C(=O)OCc4cccnc4)C(=O)CCCCCCCC1)O3)O2	1.89	> 50			1.99	15.5			2.43	> 50	4.25	5.87	> 50		> 50	1.37		1740	3.03	1090
COc1cc2oc(-c3ccc(O)cc3O)c(CC=C(C)C)c(=O)c2c(O)c1/C=C/C(C)C				8.44		18.7		12.3		20.6	5.59	8.73	9.42	4.49	8.2					
COC(=O)NC(=Nc1ccc(Oc2ccccc2)cc1NC=O)NC(=O)OC				> 100		> 100		> 100		0.526	0.707	> 100	> 100							
c1ccc(CN2CCC3(CC2)SSC2(CCN(Cc4ccccc4)CC2)SS3)cc1		> 100		> 100		> 100		> 100		> 100		> 100	> 100	> 100	> 100					
COC(=O)C1=Cc2cc(OC)c(OC)cc2[C@H](c2ccc(OC)c(OC)c2)C1C(=O)OC (stereo partly specified)		> 100		> 100		> 100		> 100		> 100	> 100	> 100	> 100							
CCCCCCCCCCCCCCCC(=O)N[C@H](/C=C/[C@H](O)CCCCCCCCCCCCC)CO			> 100	> 100	> 100	> 100	> 100	> 100	> 100	> 100	> 100	> 100	> 100	> 100	> 100	> 100	> 100	> 100000	> 100	884
Cc1cc(Cl)ccc1NC(=O)CCCC(=O)C1CCC/C1=N\NC(=O)CC#N (stereo unspecified)		> 100		> 100		> 100		> 100		> 100	> 100	> 100	> 100							
O=C(N=Nc1c(O)[nH]c2ccccc12)c1oc2ccccc2c1CN1CCN(c2ccccc2)CC1	2.42	9.61	0.725	1.46	2.54	11.6	5.11	12.5	7.3	15.7	> 50		8.5	8.26	7.23	36.5	2.07	1590	1.96	
O=c1c2c(c3ccccc3n1-c1ccccc1)NC(=S)NC2c1ccc(Cl)cc1 (stereo unspecified)	3.16	27.1	5.66	> 100	8.8	86.4	1.34	7.16	9.15	65	45		> 100	31	> 100	3.6	3.27	2680	4.07	
